≈ marks a conversion by molar mass, not a printed value. Read-outs that look alike come from different tables or passages of the source.
Columns and labels:
(1,3)-β-Glucan Synthase = biological target: T1, (1,3)-β-Glucan Synthase (Candida albicans, UniProt O13428); test: In vitro inhibition of (1,3)-β-glucan synthase activity, microsomal enzyme preparation; type: biochemical; conditions: C. albicans CCH 442 microsomal enzyme
T1 construct: microsomal enzyme preparation C. albicans CCH 442; endogenous in cells; host or cells: Candida albicans CCH 442, microsomes
T1 sequence (O13428 1-1897): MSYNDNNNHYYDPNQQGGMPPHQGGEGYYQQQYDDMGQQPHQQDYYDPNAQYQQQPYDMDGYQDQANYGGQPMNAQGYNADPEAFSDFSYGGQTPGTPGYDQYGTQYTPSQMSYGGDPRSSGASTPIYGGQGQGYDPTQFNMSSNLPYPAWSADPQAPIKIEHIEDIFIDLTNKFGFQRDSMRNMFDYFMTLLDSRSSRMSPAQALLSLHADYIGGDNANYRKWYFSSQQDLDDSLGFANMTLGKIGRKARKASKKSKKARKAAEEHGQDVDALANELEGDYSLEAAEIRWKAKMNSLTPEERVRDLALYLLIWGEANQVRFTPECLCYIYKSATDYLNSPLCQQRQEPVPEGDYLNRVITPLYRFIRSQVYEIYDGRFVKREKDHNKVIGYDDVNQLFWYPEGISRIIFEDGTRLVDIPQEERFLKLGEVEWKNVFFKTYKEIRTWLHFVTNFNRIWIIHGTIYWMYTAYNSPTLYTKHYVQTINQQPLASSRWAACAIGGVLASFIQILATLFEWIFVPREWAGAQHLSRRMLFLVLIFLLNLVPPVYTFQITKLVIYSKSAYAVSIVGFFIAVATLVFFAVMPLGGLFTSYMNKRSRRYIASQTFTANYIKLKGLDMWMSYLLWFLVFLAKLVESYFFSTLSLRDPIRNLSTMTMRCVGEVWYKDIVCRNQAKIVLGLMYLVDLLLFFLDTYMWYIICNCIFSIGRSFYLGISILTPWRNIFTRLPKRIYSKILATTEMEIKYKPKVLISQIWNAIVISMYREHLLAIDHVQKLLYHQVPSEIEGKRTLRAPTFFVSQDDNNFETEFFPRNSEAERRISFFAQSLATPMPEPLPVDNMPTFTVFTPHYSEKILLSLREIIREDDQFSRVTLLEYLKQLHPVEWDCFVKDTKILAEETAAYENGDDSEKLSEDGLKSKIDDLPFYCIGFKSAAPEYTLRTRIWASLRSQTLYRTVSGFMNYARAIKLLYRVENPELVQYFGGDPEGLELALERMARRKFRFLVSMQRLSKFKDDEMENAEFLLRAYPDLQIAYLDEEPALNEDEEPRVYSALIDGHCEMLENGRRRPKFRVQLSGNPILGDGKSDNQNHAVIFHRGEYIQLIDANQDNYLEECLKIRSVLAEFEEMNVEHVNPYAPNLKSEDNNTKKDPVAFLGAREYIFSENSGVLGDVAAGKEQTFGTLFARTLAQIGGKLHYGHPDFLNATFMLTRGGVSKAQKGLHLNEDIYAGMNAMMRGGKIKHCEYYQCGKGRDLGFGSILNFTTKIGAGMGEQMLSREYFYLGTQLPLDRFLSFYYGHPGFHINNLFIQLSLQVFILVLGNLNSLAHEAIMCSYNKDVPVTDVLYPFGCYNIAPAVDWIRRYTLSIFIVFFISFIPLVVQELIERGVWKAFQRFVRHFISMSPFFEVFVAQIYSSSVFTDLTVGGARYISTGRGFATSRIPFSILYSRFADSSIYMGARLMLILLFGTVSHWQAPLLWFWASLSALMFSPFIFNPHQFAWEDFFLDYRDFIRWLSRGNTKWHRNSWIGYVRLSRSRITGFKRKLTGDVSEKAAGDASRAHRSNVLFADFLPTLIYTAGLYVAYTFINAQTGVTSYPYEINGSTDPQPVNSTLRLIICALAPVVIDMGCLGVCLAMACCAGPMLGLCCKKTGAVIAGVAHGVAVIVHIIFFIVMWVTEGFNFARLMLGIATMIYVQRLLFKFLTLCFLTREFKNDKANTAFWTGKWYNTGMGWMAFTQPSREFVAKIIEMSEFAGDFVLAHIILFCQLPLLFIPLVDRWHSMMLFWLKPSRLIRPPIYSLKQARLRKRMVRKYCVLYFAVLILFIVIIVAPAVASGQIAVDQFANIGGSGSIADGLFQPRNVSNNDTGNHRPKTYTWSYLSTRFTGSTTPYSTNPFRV
Description: The assay was conducted in a final volume of 100 μL of 2.0 mM UDP-[^14 C]-Glc (0.625 mCi/mmol), 1 mM EDTA, 8% (v/v) glycerol, 20 μM GTPgS, 0.5% Brij-35(v/v) or 0.8% BSA, 80 mM Tris/HCl, pH 7.75, and microsomal enzyme preparation C. albicans CCH 442 (100 μg of protein). A detailed description of this assay is described by Frost, D., Brandt, K. Capobioanco, and Goldman, R., Microbiology 140: 2239-2246 (1994) which is incorporated herein by reference.

[1] = MIC by broth dilution assay; type: cell-based; conditions: Table 6d, 2 ×10^5 organisms/mL; for MIC: 144 h, no sorbitol
Description: Minimal inhibitory concentrations (MICs) were determined by a broth dilution assay described by Frost, D., Brandt, K., Cugier, D., and Goldman, R. in J. Antibiotics 48: 306-310 (1995) which is incorporated herein by reference. The final concentration of cells was 2 ×10^5 organisms/mL.

[2] = Minimum inhibitory concentration (MIC) stated with the glucan synthase screen; type: cell-based; conditions: organism not given
glucan synthase = biological target: T2, glucan synthase (Candida albicans, UniProt O13428); test: Microtiter screen for inhibitors of (1,3)-β-glucan formation in cell free extracts; type: biochemical; conditions: C. albicans microsomes, [14C]UDP-Glc, water-insoluble β-glucan product on filter
T2 construct: Microsomes isolated from mid-log phase grown yeast; endogenous in cells; host or cells: Candida albicans, mid-log phase yeast cells, microsomes
T2 sequence (O13428 1-1897): as above
From the text: The fungal cell wall serves as a protective barrier and is essential for viability in a hypotonic environment. (1,3)-β-Glucan is a component of the Candida albicans cell wall, and the enzyme that biosynthesizes this polymer, glucan synthase, is not present in higher eukaryotes. (Glucan synthase is an integral plasma membrane protein that catalyzes polymerization of uridine diphosphate-glucose (UDP-Glc) into β-glucan.) Accordingly, glucan synthase represents an ideal target for the development of antifungal agents.
A microtiter screen was established to detect inhibitors of (1 ,3)-β-glucan formation in C. albicans cell free extracts. Microsomes isolated from mid-log phase grown yeast were incubated with [^14 C]UDP-Glc, effectors and test compound (fusacandin A, Example 4). The formation of the water-insoluble β-glucan product was measured on a filter after removing the substrate with water washes.

Candida albicans CCH 442 = test: MIC by agar dilution method; type: cell-based; conditions: CCH442, agar dilution
Description: (§1) Minimal inhibitory concentrations (MICs) were determined by an agar dilution method. The test compounds were serially diluted in MeOH and 0.2 mL portions were mixed with 20 mL of molten, cooled Sabouraud dextrose agar (Difco). Yeast cell inoculum was prepared by growing cultures on Sabouraud dextrose agar for 18 hours at 32° C. and suspending the cells in phosphate buffered saline. Filamentous fungi were grown under the same conditions for 4 days to obtain spores. The inoculum level for all cultures was adjusted to 10^4 cells using a Petroff-Hauser cell counter. The glutarimide antifungal compounds cycloheximide or amphotericin B were used as a control. Inoculated test plates were incubated at 32° C. and examined after 20 hours.

Candida albicans 579a = test: MIC by agar dilution method; type: cell-based
Description: as §1

[3] = system: Torulopsis glabrata ATCC 155; test: MIC by agar dilution method; type: cell-based; conditions: Nakaseomyces glabratus, ATCC155, Torulopsis glabrata ATCC 155, agar dilution, 32° C., 20 hours, read-out: MIC
Description: as §1

[4] = system: Candida albicans ATCC 623; test: MIC by agar dilution method; type: cell-based; conditions: ATCC623, Candida albicans ATCC 623, agar dilution, 32° C., 20 hours, read-out: MIC
Description: as §1

[5] = system: Aspergillus niger ATCC 164; test: MIC by agar dilution method; type: cell-based; conditions: ATCC164, Aspergillus niger ATCC 164, agar dilution, 32° C., 20 hours, read-out: MIC
Description: as §1

[6] = system: Candida tropicalis NRRL-Y-1; test: MIC by agar dilution method; type: cell-based; conditions: NRRLY1, agar dilution, 32° C., 20 hours, read-out: MIC
Description: as §1

[7] = system: Saccharomyces cereviseae GS1-36; test: MIC by agar dilution method; type: cell-based; conditions: GS136, Saccharomyces cereviseae GS1-36, agar dilution, 32° C., 20 hours, read-out: MIC
Description: as §1

Candida kefyr ATTC 288 = test: MIC by agar dilution method; type: cell-based; conditions: Kluyveromyces marxianus
Description: as §1

[8] = system: Candida albicans ATCC 102; test: MIC by agar dilution method; type: cell-based; conditions: ATCC102, 20 h
Description: as §1

[9] = system: Candida albicans ATCC 382; test: MIC by agar dilution method; type: cell-based; conditions: ATCC382, 20 h
Description: as §1

[10] = system: Cryptococcus albidus ATCC 341; test: MIC by agar dilution method; type: cell-based; conditions: Naganishia albida, ATCC341, Table 6b, 32° C., 20 hours
Description: as §1

[11] = system: Streptococcus bovis A-5169; test: MIC by agar dilution method; type: cell-based; conditions: Streptococcus equinus, A5169; Table 6a; Streptococcus bovis A-5169; agar dilution, 32° C., 20 hours; read-out: MIC
[12] = system: Staphylococcus aureus ATTC 6538p; test: MIC by agar dilution method; type: cell-based; conditions: ATTC6538P; Table 6a; Staphylococcus aureus ATTC 6538p; agar dilution, 32° C., 20 hours; read-out: MIC
[13] = system: Streptococcus pyrogenes EES61; test: MIC by agar dilution method; type: cell-based; conditions: Table 6a; Streptococcus pyrogenes EES61; agar dilution, 32° C., 20 hours; read-out: MIC
[14] = system: Candida albicans ATCC 10231; test: MIC by agar dilution method; type: cell-based; conditions: ATCC10231; Table 6c; I Candida albicans ATCC 10231; agar dilution; read-out: MIC I
Description: as §1

[15] = system: Candida albicans ATCC 38247; test: MIC by agar dilution method; type: cell-based; conditions: ATCC38247; Table 6c; IV Candida albicans ATCC 38247; agar dilution; read-out: MIC IV
Description: as §1

[16] = system: Candida albicans ATCC 997; test: MIC by agar dilution method; type: cell-based; conditions: ATCC997; Table 6a; Candida albicans ATCC 997; agar dilution, 32° C., 20 hours; read-out: MIC
Description: as §1

[17] = system: Candida albicans ATCC 62376; test: MIC by agar dilution method; type: cell-based; conditions: ATCC62376; Table 6c; V Candida albicans ATCC 62376; agar dilution; read-out: MIC V
Description: as §1

[18] = system: Nocardia asteroides ATTC 9970; test: MIC by agar dilution method; type: cell-based; conditions: ATTC9970; Table 6a; Nocardia asteroides ATTC 9970; agar dilution, 32° C., 20 hours; read-out: MIC
[19] = Table 6b, Candida albicans CCH 442, 32° C., 20 hours, read-out: MIC
[20] = Table 6b, Candida tropicalis NRRL Y-1
[21] = Table 6c, 3rd value column (head printed II), III Candida albicans CCH 442, read-out: MIC II
[22] = Table 6c, II Candida albicans 579a, agar dilution, read-out: MIC II

| Structure (SMILES) | MIC [1] [µg/mL] | MIC (Candida albicans CCH 442; [19]) [µg/mL] | MIC (Candida albicans 579a; Candida albicans, 579A, 20 h) [µg/mL] | MIC ([3]; Table 6b) [µg/mL] | MIC ([4]; Table 6b) [µg/mL] | MIC ([5]; Table 6b) [µg/mL] | MIC [6, 20] [µg/mL] | MIC ([7]; Table 6b) [µg/mL] | MIC (Candida kefyr ATTC 288; ATCC288, 20 h) [µg/mL] | MIC [8] [µg/mL] | MIC [9] [µg/mL] | MIC [10] [µg/mL] | MIC [14] [µg/mL] | MIC (Candida albicans CCH 442; [21]) [µg/mL] | MIC (Candida albicans 579a; [22]) [µg/mL] | MIC [15] [µg/mL] | MIC [17] [µg/mL] | further results |
| --- | --- | --- | --- | --- | --- | --- | --- | --- | --- | --- | --- | --- | --- | --- | --- | --- | --- | --- |
| CCC(O)/C=C/C=C/C=C/C(=O)OC[C@H]1O[C@@H](O[C@H]2[C@H](OC(=O)/C=C/C=C/CC(O)/C(C)=C/C=C/CCC(C)CC)[C@@H](O)[C@@]3(OCc4cc(O)cc(O)c43)O[C@@H]2CO)[C@H](O)[C@@H](O)[C@H]1O (stereo partly shown) [Papulacandin B, papulacandin B, reference compound] | – | – | – | – | – | – | – | – | – | – | – | – | – | – | – | – | – | IC50 With Brij-35 ((1,3)-β-Glucan Synthase; 0.5% Brij-35): 0.8 µg/mL (≈ 0.888 µM); IC50 With BSA ((1,3)-β-Glucan Synthase; 0.8% BSA): 16.3 µg/mL (≈ 18.1 µM); MIC No sorbitol [1]: 0.48 µg/mL (≈ 0.533 µM); minimum inhibitory concentration (MIC) [2]: 1.0 µg/mL (≈ 1.11 µM); IC50 (glucan synthase): 3.6 µg/mL |
| C[C@@H]1[C@H](O)[C@@H](C)/C=C/C=C/C=C/C=C/C=C/C=C/C=C/[C@H](O[C@@H]2O[C@H](C)[C@@H](O)[C@H](N)[C@@H]2O)C[C@@H]2O[C@](O)(C[C@@H](O)C[C@@H](O)[C@H](O)CC[C@@H](O)C[C@@H](O)CC(=O)O[C@H]1C)C[C@H](O)[C@H]2C(=O)O [Amphotericin B, amphotericin B, reference compound] | 0.24 (≈ 0.26 µM) | 1.56 (≈ 1.69 µM) | 1.56 (≈ 1.69 µM) | 1.56 (≈ 1.69 µM) | 1.56 (≈ 1.69 µM) | 1.56 (≈ 1.69 µM) | 1.56 (≈ 1.69 µM) | 1.56 (≈ 1.69 µM) | 1.56 (≈ 1.69 µM) | 1.56 (≈ 1.69 µM) | 50 (≈ 54.1 µM) | 3.12 (≈ 3.38 µM) | – | – | – | – | – | – |
| CCCCCC=CC=CC(=O)OCC1OC(OC2C(CO)OC(c3c(O)cc(O)cc3CO)C(O)C2OC(=O)C=CC=CCC(O)C=CC=CCCCCC)C(OC2OC(CO)C(O)C(O)C2O)C(O)C1O (stereo not shown) [Example 4, fusacandin A] | 0.48 (≈ 0.469 µM) | – | – | – | – | – | – | – | – | – | – | – | 1.56 (≈ 1.52 µM) | 0.78 (≈ 0.762 µM) | 0.78 (≈ 0.762 µM) | 0.78 (≈ 0.762 µM) | 1.56 (≈ 1.52 µM) | MIC [11]: 12.5 µg/mL (≈ 12.2 µM); IC50 ((1,3)-β-Glucan Synthase; 0.5% Brij-35, read-out: IC50 With Brij-35 (converted)): 6.84 µM; IC50 ((1,3)-β-Glucan Synthase; 0.8% BSA, read-out: IC50 With BSA (converted)): 111 µM; MIC [12]: 50 µg/mL (≈ 48.9 µM); MIC [13]: 6.25 µg/mL (≈ 6.11 µM); MIC [2]: 0.5 µg/mL (≈ 0.489 µM); MIC (Candida albicans CCH 442; Table 6a, Candida albicans CCH 442, 32° C., 20 hours, read-out: MIC): 6.26 µg/mL (≈ 6.12 µM); MIC ([3]; Table 6a): 3.12 µg/mL (≈ 3.05 µM); MIC ([4]; Table 6a): 6.25 µg/mL (≈ 6.11 µM); MIC ([5]; Table 6a): 6.25 µg/mL (≈ 6.11 µM); MIC ([6]; Table 6a, Candida tropicalis NRRL-Y-1): 6.25 µg/mL (≈ 6.11 µM); MIC ([7]; Table 6a): 3.12 µg/mL (≈ 3.05 µM); MIC (Candida kefyr ATTC 288; ATTC288, Table 6a, Candida kefyr ATTC 288, agar dilution, 32° C., 20 hours, read-out: MIC): 6.25 µg/mL (≈ 6.11 µM); MIC [16]: 12.5 µg/mL (≈ 12.2 µM); IC50 (glucan synthase; read-out: IC50 (converted)): 20 µM; MIC [18]: 12.5 µg/mL (≈ 12.2 µM) |
| CCCCC/C=C/C=C/C(O)C/C=C/C=C/C(=O)O[C@@H]1[C@@H](O)[C@H](c2c(O)cc(O)cc2CO)O[C@H](CO)[C@H]1O[C@@H]1O[C@H](CO)[C@H](O)[C@H](O)[C@H]1O[C@@H]1O[C@H](CO)[C@H](O)[C@H](O)[C@H]1O (stereo partly shown) [Example 7, fusacandin B] | – | 50 (≈ 57.3 µM) | 50 (≈ 57.3 µM) | 100 (≈ 115 µM) | 100 (≈ 115 µM) | > 100 | 50 (≈ 57.3 µM) | 50 (≈ 57.3 µM) | 100 (≈ 115 µM) | 50 (≈ 57.3 µM) | > 100 | > 100 | 50 (≈ 57.3 µM) | 25 (≈ 28.6 µM) | 25 (≈ 28.6 µM) | > 100 | 50 (≈ 57.3 µM) | – |
